Results published in the supplement of paper PMC10307832.

Columns and labels:
Experiment in all cases: relative viability (nuclei count vs DMSO), 5 days (fraction); higher = more cells survive
201T = test system: 201T
Summary of the method: (§1)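 Lung cancer cell lines were pin-tool dosed in 1536-well plates on the day after seeding, with either a lone drug or a fixed anchor-drug dose plus five library-drug doses (not always all listed) in √10 steps. Nuclei were counted on 4× images after 5 days. Relative viability is the ratio of treated-well to vehicle-well nuclei counts, with each value a median of duplicate plates.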

A-427 = test system: A-427
Summary of the method: as §1

BEN = test system: BEN
Summary of the method: as §1

COR-L23 = test system: COR-L23
Summary of the method: as §1

EKVX = test system: EKVX
Summary of the method: as §1

HARA = test system: HARA
Summary of the method: as §1

HCC-15 = test system: HCC-15
Summary of the method: as §1

HCC-44 = test system: HCC-44
Summary of the method: as §1

HCC-827 = test system: HCC-827
Summary of the method: as §1

NCI-H1437 = test system: NCI-H1437
Summary of the method: as §1

NCI-H1650 = test system: NCI-H1650
Summary of the method: as §1

NCI-H1666 = test system: NCI-H1666
Summary of the method: as §1

NCI-H1792 = test system: NCI-H1792
Summary of the method: as §1

NCI-H1975 = test system: NCI-H1975
Summary of the method: as §1

NCI-H2342 = test system: NCI-H2342
Summary of the method: as §1

NCI-H23 = test system: NCI-H23
Summary of the method: as §1

NCI-H358 = test system: NCI-H358
Summary of the method: as §1

NCI-H441 = test system: NCI-H441
Summary of the method: as §1

NCI-H650 = test system: NCI-H650
Summary of the method: as §1

NCI-H838 = test system: NCI-H838
Summary of the method: as §1

SK-MES-1 = test system: SK-MES-1
Summary of the method: as §1

SW 900 = test system: SW 900
Summary of the method: as §1

Q: How did the relative viability (201T; first compound 0.08 µM) turn out when `COc1nc(C)cnc1NS(=O)(=O)c1cccnc1-c1ccc(-c2nnco2)cc1` [Zibotentan] + CC(=O)c1c(C)c2cnc(Nc3ccc(N4CCNCC4)cn3)nc2n(C2CCCC2)c1=O [Palbociclib] (partner 0.5 µM) was run?
A: The relative viability was 0.357.

Q: And the relative viability (201T; first compound 0.253 µM)?
A: Its relative viability is 0.346.

Q: What about the relative viability (201T; first compound 0.8 µM) of the same molecule?
A: Its relative viability is 0.359.

Q: And the relative viability (201T; first compound 2.53 µM)?
A: Its relative viability is 0.363.

Q: What about the relative viability (A-427; first compound 0.08 µM) of the same molecule?
A: The relative viability was 0.514.

Q: What about the relative viability (A-427; first compound 0.253 µM) of the same molecule?
A: Its relative viability is 0.515.

Q: What about the relative viability (A-427; first compound 0.8 µM) of the same molecule?
A: The relative viability was 0.519.

Q: And the relative viability (A-427; first compound 2.53 µM)?
A: The relative viability was 0.559.

Q: What about the relative viability (BEN; first compound 0.08 µM) of the same molecule?
A: The relative viability was 0.496.

Q: What about the relative viability (BEN; first compound 0.253 µM) of the same molecule?
A: The relative viability was 0.493.

Q: What about the relative viability (BEN; first compound 0.8 µM) of the same molecule?
A: Its relative viability is 0.451.

Q: What about the relative viability (BEN; first compound 2.53 µM) of the same molecule?
A: The relative viability was 0.44.

Q: What about the relative viability (COR-L23; first compound 0.08 µM) of the same molecule?
A: The relative viability was 0.338.

Q: And the relative viability (COR-L23; first compound 0.253 µM)?
A: The relative viability was 0.225.

Q: What about the relative viability (COR-L23; first compound 0.8 µM) of the same molecule?
A: The relative viability was 0.366.

Q: What about the relative viability (COR-L23; first compound 2.53 µM) of the same molecule?
A: The relative viability was 0.322.

Q: What about the relative viability (EKVX; first compound 0.08 µM) of the same molecule?
A: Its relative viability is 0.276.

Q: What about the relative viability (EKVX; first compound 0.253 µM) of the same molecule?
A: The relative viability was 0.354.

Q: And the relative viability (EKVX; first compound 0.8 µM)?
A: The relative viability was 0.37.

Q: And the relative viability (EKVX; first compound 2.53 µM)?
A: The relative viability was 0.5.

Q: What about the relative viability (HARA; first compound 0.08 µM) of the same molecule?
A: Its relative viability is 0.297.

Q: And the relative viability (HARA; first compound 0.253 µM)?
A: Its relative viability is 0.226.

Q: And the relative viability (HARA; first compound 0.8 µM)?
A: Its relative viability is 0.27.

Q: What about the relative viability (HARA; first compound 2.53 µM) of the same molecule?
A: Its relative viability is 0.258.

Q: And the relative viability (HCC-15; first compound 0.08 µM)?
A: Its relative viability is 0.796.

Q: And the relative viability (HCC-15; first compound 0.253 µM)?
A: Its relative viability is 0.641.

Q: And the relative viability (HCC-15; first compound 0.8 µM)?
A: Its relative viability is 0.796.

Q: And the relative viability (HCC-15; first compound 2.53 µM)?
A: Its relative viability is 0.713.

Q: And the relative viability (HCC-44; first compound 0.08 µM)?
A: Its relative viability is 0.98.

Q: What about the relative viability (HCC-44; first compound 0.253 µM) of the same molecule?
A: Its relative viability is 0.827.

Q: And the relative viability (HCC-44; first compound 0.8 µM)?
A: The relative viability was 0.949.

Q: And the relative viability (HCC-44; first compound 2.53 µM)?
A: The relative viability was 1.

Q: And the relative viability (HCC-827; first compound 0.08 µM)?
A: Its relative viability is 0.437.

Q: What about the relative viability (HCC-827; first compound 0.253 µM) of the same molecule?
A: Its relative viability is 0.49.

Q: What about the relative viability (HCC-827; first compound 0.8 µM) of the same molecule?
A: The relative viability was 0.454.

Q: And the relative viability (HCC-827; first compound 2.53 µM)?
A: The relative viability was 0.487.

Q: And the relative viability (NCI-H1437; first compound 0.08 µM)?
A: Its relative viability is 0.327.

Q: And the relative viability (NCI-H1437; first compound 0.253 µM)?
A: The relative viability was 0.296.

Q: What about the relative viability (NCI-H1437; first compound 0.8 µM) of the same molecule?
A: Its relative viability is 0.288.

Q: And the relative viability (NCI-H1437; first compound 2.53 µM)?
A: Its relative viability is 0.304.

Q: What about the relative viability (NCI-H1650; first compound 0.08 µM) of the same molecule?
A: Its relative viability is 0.335.

Q: What about the relative viability (NCI-H1650; first compound 0.8 µM) of the same molecule?
A: The relative viability was 0.357.

Q: What about the relative viability (NCI-H1650; first compound 2.53 µM) of the same molecule?
A: Its relative viability is 0.336.

Q: What about the relative viability (NCI-H1666; first compound 0.08 µM) of the same molecule?
A: Its relative viability is 0.682.

Q: And the relative viability (NCI-H1666; first compound 0.253 µM)?
A: The relative viability was 0.594.

Q: What about the relative viability (NCI-H1666; first compound 0.8 µM) of the same molecule?
A: Its relative viability is 0.694.

Q: And the relative viability (NCI-H1666; first compound 2.53 µM)?
A: Its relative viability is 0.692.

Q: And the relative viability (NCI-H1792; first compound 0.08 µM)?
A: Its relative viability is 0.77.

Q: And the relative viability (NCI-H1792; first compound 0.253 µM)?
A: Its relative viability is 0.551.

Q: What about the relative viability (NCI-H1792; first compound 0.8 µM) of the same molecule?
A: Its relative viability is 0.525.

Q: What about the relative viability (NCI-H1792; first compound 2.53 µM) of the same molecule?
A: The relative viability was 0.578.

Q: And the relative viability (NCI-H1975; first compound 0.08 µM)?
A: Its relative viability is 0.517.

Q: And the relative viability (NCI-H1975; first compound 0.253 µM)?
A: The relative viability was 0.526.

Q: What about the relative viability (NCI-H1975; first compound 0.8 µM) of the same molecule?
A: Its relative viability is 0.553.

Q: And the relative viability (NCI-H1975; first compound 2.53 µM)?
A: The relative viability was 0.596.

Q: What about the relative viability (NCI-H2342; first compound 0.08 µM) of the same molecule?
A: The relative viability was 0.507.

Q: What about the relative viability (NCI-H2342; first compound 0.253 µM) of the same molecule?
A: Its relative viability is 0.557.

Q: And the relative viability (NCI-H2342; first compound 0.8 µM)?
A: The relative viability was 0.558.

Q: And the relative viability (NCI-H2342; first compound 2.53 µM)?
A: The relative viability was 0.506.

Q: And the relative viability (NCI-H23; first compound 0.08 µM)?
A: Its relative viability is 0.586.

Q: What about the relative viability (NCI-H23; first compound 0.253 µM) of the same molecule?
A: The relative viability was 0.496.

Q: What about the relative viability (NCI-H23; first compound 0.8 µM) of the same molecule?
A: The relative viability was 0.53.

Q: And the relative viability (NCI-H23; first compound 2.53 µM)?
A: Its relative viability is 0.527.

Q: And the relative viability (NCI-H358; first compound 0.08 µM)?
A: Its relative viability is 0.152.

Q: What about the relative viability (NCI-H358; first compound 0.253 µM) of the same molecule?
A: The relative viability was 0.117.

Q: What about the relative viability (NCI-H358; first compound 2.53 µM) of the same molecule?
A: Its relative viability is 0.125.

Q: What about the relative viability (NCI-H441; first compound 0.08 µM) of the same molecule?
A: Its relative viability is 0.237.

Q: What about the relative viability (NCI-H441; first compound 0.253 µM) of the same molecule?
A: Its relative viability is 0.197.

Q: What about the relative viability (NCI-H441; first compound 0.8 µM) of the same molecule?
A: The relative viability was 0.254.

Q: What about the relative viability (NCI-H441; first compound 2.53 µM) of the same molecule?
A: The relative viability was 0.24.

Q: And the relative viability (NCI-H650; first compound 0.08 µM)?
A: The relative viability was 0.339.

Q: What about the relative viability (NCI-H650; first compound 0.253 µM) of the same molecule?
A: Its relative viability is 0.371.

Q: And the relative viability (NCI-H650; first compound 0.8 µM)?
A: The relative viability was 0.351.

Q: What about the relative viability (NCI-H650; first compound 2.53 µM) of the same molecule?
A: Its relative viability is 0.355.

Q: And the relative viability (NCI-H838; first compound 0.08 µM)?
A: The relative viability was 0.227.

Q: What about the relative viability (NCI-H838; first compound 0.253 µM) of the same molecule?
A: The relative viability was 0.207.

Q: What about the relative viability (NCI-H838; first compound 0.8 µM) of the same molecule?
A: The relative viability was 0.191.

Q: What about the relative viability (NCI-H838; first compound 2.53 µM) of the same molecule?
A: The relative viability was 0.233.

Q: What about the relative viability (SK-MES-1; first compound 0.08 µM) of the same molecule?
A: Its relative viability is 0.309.

Q: What about the relative viability (SK-MES-1; first compound 0.253 µM) of the same molecule?
A: Its relative viability is 0.284.

Q: What about the relative viability (SK-MES-1; first compound 0.8 µM) of the same molecule?
A: Its relative viability is 0.35.

Q: And the relative viability (SK-MES-1; first compound 2.53 µM)?
A: Its relative viability is 0.362.

Q: What about the relative viability (SW 900; first compound 0.08 µM) of the same molecule?
A: Its relative viability is 0.541.

Q: What about the relative viability (SW 900; first compound 0.253 µM) of the same molecule?
A: Its relative viability is 0.565.

Q: What about the relative viability (SW 900; first compound 0.8 µM) of the same molecule?
A: Its relative viability is 0.487.

Q: What about the relative viability (SW 900; first compound 2.53 µM) of the same molecule?
A: The relative viability was 0.564.
